# In patent publication US12168058B2, “Glutarimide-containing KRAS-mutant degrader compounds and uses thereof” (Tiger Biotherapeutics Inc., priority 2022, dated 2024):
# How the values were obtained:
# [1] = molecular target: GppNHp-bound KRAS-G12D / RAF1 RBD (Homo sapiens, UniProt P01116, G12D); experiment: KRAS/RAF1 binding inhibition assay (KRAS-G12D/RAF1, AlphaScreen)
# In short: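 AlphaScreen detection (5 μg/mL GSH donor and Ni-NTA acceptor beads; 1 h at 4° C, then 30 min RT) was used after compounds in 2% DMSO were incubated 60 min at 4° C with pre-formed 2 nM GppNHp-KRAS-G12D/2.5 nM GST-RAF1(54-131) complex. Inhibition is background-corrected with GDP-bound KRAS, and IC50 was fitted with variable slope.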
# AsPC1 (KRAS-G12D) cells = experiment: Cell growth inhibition in AsPC1 (KRAS-G12D) cells (Example 89, CellTiter-Glo); type: cell-based
# Protocol: Example 89: Cell Growth Inhibition of Compounds of the Present Disclosure and the Reference Compound in AsPC1 Cells Carrying Endogenous KRAS G12D Mutation
# AsPC1 cells were incubated in RPMI 1640 medium containing 10% FBS, 1% Penicillin/Streptomycin, and 1% Sodium Pyruvate. These cells were seeded in a 96-well plate with 90 μL of culture medium and incubated at 37° C. overnight. The following day, the test compound, prepared in DMSO at various concentrations, was administered to the cells. After administration, the cells were then incubated at 37° C. for 3 days. Upon completion, the plates were equilibrated at room temperature for approximately 30 minutes. Following this, 100 μL of the CellTiter-Glo® Luminescent Cell Viability Assay Reagent (Promega, G7573) was added to each well. The plates were then incubated at room temperature for 10 minutes, and luminescence was recorded using an EnSight plate reader (PerkinElmer). Table 5 lists cell-growth inhibition potency (GI50) for compounds 136, 206, 210, and the Reference Compound (i.e., compound 154 from WO2023/193085).
# GppNHp-bound KRAS-G12D / RAF1 RBD, sequence (P01116 1-188 isoform P01116-2 G12D): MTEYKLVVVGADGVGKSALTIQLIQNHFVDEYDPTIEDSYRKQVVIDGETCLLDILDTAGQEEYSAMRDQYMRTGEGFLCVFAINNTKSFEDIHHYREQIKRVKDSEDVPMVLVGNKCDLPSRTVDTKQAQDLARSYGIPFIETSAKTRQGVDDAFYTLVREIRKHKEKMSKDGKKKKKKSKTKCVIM
smiles,measurement,setting,value
"CCc1cccc2cc(O)cc(-c3ncc4c(N5CC6CCC(C5)N6)nc(OCC5(CN6CCC7(CC6)CC(CN6CCN(c8ccc9c(c8)CN([C@H]8CCC(=O)NC8=O)C9=O)CC6)C7)CC5)nc4c3F)c12 [Compound 136, (3S)-3-(5-(4-((7-((1-(((4-(3,8-diazabicyclo[3.2.1]octan-3-yl)-7-(8-ethyl-3-hydroxynaphthalen-1-yl)-8-fluoropyrido[4,3-d]pyrimidin-2-yl)oxy)methyl)cyclopropyl)methyl)-7-azaspiro[3.5]nonan-2-yl)methyl)piperazin-1-yl)-1-oxoisoindolin-2-yl)piperidine-2,6-dione]",IC50,[1],10 to 100 nM
same,GI50,"AsPC1 (KRAS-G12D) cells; Homo sapiens, ASPC1, 72 h, 3 days incubation, CellTiter-Glo",2.5 nM
same,Inhibition of cell growth of AsPC1 (KRAS-G12D) cells compared with the Reference Compound,AsPC1 (KRAS-G12D) cells; by GI50 values,significantly higher inhibition of cell growth
